This experiment has as its system patients at risk for a vascular occlusion. Put plainly: ascorbic acid infusion as adjuvant to thrombolytic treatment (streptokinase or heparin) in patients, compared with patients receiving no ascorbic acid. As to conditions: 20 patients; infusion of 70 ml of a 15% ascorbic acid solution diluted with physiological saline, pH 6.0 to 7.0, over four hours, with streptokinase (1.0×106 units) or heparin 2.5 mg/kg; versus equal number of patients with no ascorbic acid infusion but otherwise the same therapy. The experiment is classed as in vivo, humans. How it is done: Treatment of a patient threatened by a vascular occlusion is administered, for example, by first giving the patient streptokinase (1.0×106 units) or heparin in a dose of 2.5 mg/kg […] in the form of an infusion over a period of 30 minutes. At the same time, the patient receives over a period of four hours an infusion of 70 ml of a 15% ascorbic acid solution diluted with physiological saline solution and adjusted to a pH of 6.0 to 7.0. The patient's condition is monitored continuously by an electrocardiogram. A group of 20 patients at risk for a vascular occlusion were treated by the procedure described above and compared with an equal number of patients receiving no ascorbic acid infusion during the operation but otherwise the same therapy.

The results in this text go back to US20020051795A1, “ASCORBIC ACID AS AN ADJUVANT IN THE REMOVAL OF VASCULAR OCCLUSIONS” (priority 1997, published 2002).

Consider `O=C1O[C@H]([C@@H](O)CO)C(O)=C1O` [ascorbic acid], for which the “complications during the operation and during the subsequent two-week observation phase” value is listed as “significantly fewer complications”.
